Laboratory results as given in patent US7998924B2, “Compounds that bind to p185 and methods of using the same” (The Trustees of The University of Pennsylvania, priority 2001, dated 2011).
Read-outs that look alike come from different tables or passages of the source.

Assays:
[1] = molecular target: T1, HER2 receptor (Homo sapiens, UniProt P04626); assay: Biacore (surface plasmon resonance) binding of peptides to immobilized HER2
T1 construct: Recombinant purified HER2 receptor composed of the ectodomain of HER2 fused to the Fc of human IgG; purchased Xcyte Therapeutics, Seattle, Wash; (provided by Dr. Che Law; a gift, not a catalogue product)
From the text: Binding of AHNP has been studies by means of surface plasmon resonance (Biacore) technology. In Biacore experiments, one of the interacting molecules (termed the ligand) is immobilized on the sensor surface, and the other interactant (termed the analyte) is continuously flown over that surface in a micro-flow cell. The interaction between the ligand and the analyte are monitored using a light source that is reflected at the immobilized chip. Binding of the analyte to the immobilized ligand changes the resonance angle of the reflected light due to changes in the refractive index of the surface. The response is plotted in real time in the form of sensorgram curves. The advantage with this approach is its sensitivity, ease of use, and ability to perform experiments with few microgram quantities of proteins and peptides. In addition, the kinetic binding studies reveal association and disassociation rates of the analyte which may be more relevant for understanding the pharmacokinetics of drug-receptor interactions.
Binding experiments were performed with the surface plasmon resonance based biosensor instrument Biacore 3000 (Biacore AB, Uppsala, Sweden) at 25° C. Recombinant purified HER2 receptor composed of the ectodomain of HER2 fused to the Fc of human IgG was provided by Dr. Che Law, Xcyte Therapeutics, Seattle, Wash. Immobilization of HER2 in the sensor surface was performed following the standard amine coupling procedure according to manufacturer's instructions. Briefly, 35 pit of a solution containing 0.2M N-ethyl-N-(dimethylaminopropyl) carbodiimide (EDC) and 0.05 M N-hydroxysuccinimide (NHS) were injected at a flow rate of 5 μL/min to activate carboxyl groups on the sensor chip surface. HER2 (40 ng/mL in 10 mM NaOAc buffer, pH 5.0) was flowed over the chip surface at a flow rate of 20 μL/min until the desired level bound protein was reached. Unreacted protein was washed out and unreacted activated groups were blocked by the injection of 35 μL of 1 M ethanolamine at 5 μL/min. […] A reference surface was generated simultaneously under the same conditions but without HER2 injection and used as a blank to correct for instrument and buffer artifacts. Peptides were injected at variable concentrations at 20 μL/min flow rate and binding to the HER2 receptor immobilized on the chip was monitored in real time. Each sensorgram consists of an association phase (first 240 s), reflecting binding of the injected peptide to the receptor, followed by a dissociation phase (300 s), during which the running buffer is passed over the chip and the bound peptide is being washed off the receptor surface.

[2] = molecular target: T1, HER2 receptor; assay: Biacore competition: AHNP preinjection inhibits rhumAb 4D5 binding to immobilized HER2
Method: It was shown earlier that the AHNP peptide can mimic some functions of the anti-HER2/neu antibody, rhumAb 4135 in vitro and in vivo (see reference 40 below). […] To that end, injections of AHNP at variable concentrations (from 0 to 90 μM) were followed by injections of rhumAb 4135 at a constant 1 nM concentration, using the “Coinject” mode of the Biacore instrument.
Binding experiments were performed with the surface plasmon resonance based biosensor instrument Biacore 3000 (Biacore AB, Uppsala, Sweden) at 25° C. Recombinant purified HER2 receptor composed of the ectodomain of HER2 fused to the Fc of human IgG was provided by Dr. Che Law, Xcyte Therapeutics, Seattle, Wash. Immobilization of HER2 in the sensor surface was performed following the standard amine coupling procedure according to manufacturer's instructions. Briefly, 35 pit of a solution containing 0.2M N-ethyl-N-(dimethylaminopropyl) carbodiimide (EDC) and 0.05 M N-hydroxysuccinimide (NHS) were injected at a flow rate of 5 μL/min to activate carboxyl groups on the sensor chip surface. HER2 (40 ng/mL in 10 mM NaOAc buffer, pH 5.0) was flowed over the chip surface at a flow rate of 20 μL/min until the desired level bound protein was reached. […] Peptides were injected at variable concentrations at 20 μL/min flow rate and binding to the HER2 receptor immobilized on the chip was monitored in real time. […]

[3] = system: T6-17 cells
Method: (See reference 46 below.) HER2-expressing transformed tumor cells (T6-17) were used for this purpose. […] Each value represents an average of at least four samples.
The MTT assay has been used for measuring cell growth as previously described in ref 446. Briefly, T6-17 cells were seeded in 96-well plates overnight in DMEM containing 10% FBS (1000 per well). T6-17 is derived from NIH3T3 by overexpressing the human HER2 receptor. Cells were cultured in 100 μL of fresh medium containing 1 μg/mL of peptides for 48 h. […] A total of 25 μL of MTT solution (5 mg/mL in PBS) was added to each well, and after 2 h of incubation at 37° C., 100 μA of the extraction buffer (20% w/v of SDS, 50% N,N-dimethyl formamide, pH 4.7) were added. After an overnight incubation at 37° C., the optical density at 600 rim was measured using an ELISA reader.

[4] = Peptide solubility in PBS buffer at 1 mg/mL; format: physicochemical; conditions: pH 7.4, 1 mg/mL
Method: These peptides could be readily dissolved in the PBS buffer, pH 7.4, at 1 mg/mL concentration without adjustment of pH.

T1 sequence (P04626 23-652 limits assumed): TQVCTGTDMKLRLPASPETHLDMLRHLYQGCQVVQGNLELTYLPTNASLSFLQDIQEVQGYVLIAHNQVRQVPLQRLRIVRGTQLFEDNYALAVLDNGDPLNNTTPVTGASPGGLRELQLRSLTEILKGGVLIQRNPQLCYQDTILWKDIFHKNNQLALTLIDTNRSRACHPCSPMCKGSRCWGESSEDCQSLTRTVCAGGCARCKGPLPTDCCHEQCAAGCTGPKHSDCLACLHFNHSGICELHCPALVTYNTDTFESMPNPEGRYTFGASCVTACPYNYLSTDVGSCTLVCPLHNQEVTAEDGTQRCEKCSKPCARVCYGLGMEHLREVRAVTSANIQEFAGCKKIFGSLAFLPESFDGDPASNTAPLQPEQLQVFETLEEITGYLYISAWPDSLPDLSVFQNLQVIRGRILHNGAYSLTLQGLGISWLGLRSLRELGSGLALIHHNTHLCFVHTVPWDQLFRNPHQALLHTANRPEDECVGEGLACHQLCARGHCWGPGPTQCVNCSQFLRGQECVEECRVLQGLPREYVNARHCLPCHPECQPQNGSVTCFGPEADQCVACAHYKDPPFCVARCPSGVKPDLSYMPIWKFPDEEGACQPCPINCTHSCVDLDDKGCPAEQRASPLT

What does the source list for `CSCC[C@H](NC(=O)[C@H](Cc1ccc(O)cc1)NC(=O)[C@@H]1CSSC[C@H](NC(=O)[C@@H](N)Cc2ccccc2)C(=O)N[C@@H](CC(=O)O)C(=O)NCC(=O)N[C@@H](Cc2ccccc2)C(=O)N[C@@H](Cc2ccc(O)cc2)C(=O)N[C@@H](C)C(=O)N1)C(=O)N[C@@H](CC(=O)O)C(=O)N[C@H](C(N)=O)C(C)C` [Peptide 1]?
koff [1]: 0.000453 s⁻¹; kon [1]: 1410 M⁻¹ s⁻¹; receptor-binding affinity (in words) ([1]; Biacore): submicromolar; Kd ([1]; Biacore, immobilized HER2, 25° C., read-out: binding to HER2 KD): 320 nM; koff ([1]; read-out: binding to HER2 koff): 0.000453 s⁻¹; kon ([1]; read-out: binding to HER2 kon): 1410 M⁻¹ s⁻¹; IC50 [2]: 3400 nM; % inhibition of T6-17 cell proliferation in MTT assays ([3]; 1 μg/mL of peptides for 48 h): 35.5%; inhibition of growth of T6-17 cells (in words) ([3]; 0.01 to 10 μg/mL): dose-dependently; solubility [4]: < 1000 µg/mL
